In patent US20190307123A1, “KIT OF ATTRACTANTS FOR ATTRACTING THE COFFEE BERRY BORER” (INSTITUT NATIONAL DE LA RECHERCHE AGRONOMIQUE, priority 2016, published 2019):
“Also recorded” adds a separate entry of the source.

Tests used:
[1] = tested on: coffee berry borer Hypothenemus hampei; assay: Field trapping trials in Brazil (Unitrap traps in arabica coffee plantation); assay type: in vivo; conditions: Brazil field tests, result in words
Protocol: The trapping trials were carried out between Jan. 8 and Mar. 31, 2016, during the fruit maturation phase, in an arabica coffee plantation conducted under biodynamic conditions in the municipality of […] Boa Vista, in the State of São Paulo in Brazil, at an altitude of 800 m. For each test, three plots received trials, each representing a random complete block. The Coffea arabica var. tupi plantations were set up at the beginning of the 2000s in combination with shade trees (Acacia mangium, Acacia auriculiformis, […] sepium, Leucaena leucocephala). The rows are oriented along the contour lines with a variable spacing according to the plots (0.6 to 0.75×3 to 3.6 meters), and the shade trees are planted at regular intervals in the rows of coffee trees. All of the plots benefit from considerable annual maintenance: regular cutting between the rows, organic fertilization and weeding during fruit formation, foliar fertilization during bean swelling and maturation. […] The traps (Pherobank Unitrap wing model) were placed directly in the coffee trees, suspended from the branches at a height of 1.20 meters or as high as possible when the plants were smaller. The spacing between the traps is approximately 20 meters. The products used were supplied by Sigma-Aldrich. They are: The products were placed in 2 ml glass vials, in which the opening of the septum allows free diffusion by evaporation. A first diffuser contained 0.5 ml of ethanol and 0.5 ml of methanol. A second diffuser contained, where appropriate, the terpenoids diluted in paraffin (0.5 ml of (-)-limonene or 0.5 ml of (+)-limonene, 0.5 ml of paraffin and where appropriate 0.1 ml of (-)-α-pinene). The number of coffee berry borers trapped was recorded daily, and the modes tested were modified each week which represents a test. Each recording in each block represents a repetition. Between each test, the traps were washed with a 2% TFD4 solution and the diffusers were changed.

[2] = tested on: coffee berry borer Hypothenemus hampei; assay: Field trapping trials in Costa Rica (Brocap traps in arabica coffee plantation); assay type: in vivo; conditions: Costa Rica field tests; result in words
Protocol: The trials carried out above were supplemented in 2017 in Costa Rica, in a context of larger coffee berry borer populations. The trapping trials were carried out between Feb. 21 and Apr. 27, 2017, in the commercial arabica coffee plantations of the CATIE (Centro Agronómico Tropical de Investigación y Enseñanza) [The Tropical Agricultural Research and Higher Education Center] in Turrialba, Costa Rica. […] The Coffea arabica var. caturra plantations, located at approximately 600 meters of altitude, were planted in 2010 in combination with Erythrina poeppigiana as shade trees. The rows are oriented along the contour lines with a spacing of 80 cm between the plants and 2 meters between the rows (6300 plants/ha). All of the plots benefit from considerable annual maintenance: pluriannual weeding or chemical weed-killing between the rows, chemical fertilization during fruit formation, fungicide and optionally insecticide treatments in the event of coffee berry borer infestation. The yields therefrom are medium, about 1000 kg/ha/year of green bean coffee. Brocap® traps were placed directly in the coffee trees, suspended from the branches at a height of approximately 1 meter and with a spacing between the traps of approximately 20 meters. […] The number of coffee berry borers trapped was recorded daily. […]

Row | SMILES | Effect on number of borers trapped when combined with the ethanol/methanol mixture, compared with the alcohols alone [1] | Effect on number of borers trapped when combined with the ethanol/methanol mixture, compared with the alcohols alone ([1]; listed as (+) enantiomer of limonene) | Effect on number of borers trapped when combined with the ethanol/methanol mixture, compared with the ethanol/methanol mixture alone [2]
1 | C=C(C)[C@H]1CC=C(C)CC1 [(+)-limonene, (R)-(+)-Limonene, reference compound] | did not make it possible to improve the captures | does not increase the number of borers trapped | 
2 | CCCCC(CC)CO (racemic) [2-ethyl-1-hexanol, 2-Ethyl-1-hexanol] |  |  | clearly increased; also recorded: makes it possible to increase the trappings
3 | C=CC(C)(O)CCC=C(C)C (stereo not drawn) [linalool, reference compound] | virtually disappears |  | 
4 | C=C(C)[C@@H]1CC=C(C)CC1 [(−)-limonene, (S)-(−)-Limonene] | improves the attractiveness; also recorded: significantly increased; also recorded: clearly increased |  | clearly increased
